Experimental data as given in article PMC6801562, “PIEZO1 and TRPV4, which Are Distinct Mechano-Sensors in the Osteoblastic MC3T3-E1 Cells, Modify Cell-Proliferation” (International Journal of Molecular Sciences, 2019).

Columns and labels:
TRPV4 (MC3T3-E1 cells) = biological target: T1, TRPV4 (MC3T3-E1 cells) (Mus musculus, UniProt Q9EPK8); experiment: Fura-2 Ca2+ imaging, MC3T3-E1 cells, Hill fit; format: cell-based; details: agonist; native cells; pH 7.4, 2.2 mM Ca2+, n = 7
T1 construct: native full-length channel in mouse osteoblastic MC3T3-E1 cells (Riken Cell Bank); identity supported by siTRPV4 knockdown

[1] = biological target: T2, mouse PIEZO1 (mPIEZO1; HEK-mPiezo1) (Mus musculus, UniProt E2JF22); experiment: Fura-2 Ca2+ imaging, HEK cells, Hill fit; format: cell-based
T2 construct: mouse Piezo1 (Addgene) in pcDNA3.1 / pIRES2-AcGFP1, transiently transfected in HEK 293 cells; low endogenous human PIEZO1 in host
T2 sequence (E2JF22 whole entry): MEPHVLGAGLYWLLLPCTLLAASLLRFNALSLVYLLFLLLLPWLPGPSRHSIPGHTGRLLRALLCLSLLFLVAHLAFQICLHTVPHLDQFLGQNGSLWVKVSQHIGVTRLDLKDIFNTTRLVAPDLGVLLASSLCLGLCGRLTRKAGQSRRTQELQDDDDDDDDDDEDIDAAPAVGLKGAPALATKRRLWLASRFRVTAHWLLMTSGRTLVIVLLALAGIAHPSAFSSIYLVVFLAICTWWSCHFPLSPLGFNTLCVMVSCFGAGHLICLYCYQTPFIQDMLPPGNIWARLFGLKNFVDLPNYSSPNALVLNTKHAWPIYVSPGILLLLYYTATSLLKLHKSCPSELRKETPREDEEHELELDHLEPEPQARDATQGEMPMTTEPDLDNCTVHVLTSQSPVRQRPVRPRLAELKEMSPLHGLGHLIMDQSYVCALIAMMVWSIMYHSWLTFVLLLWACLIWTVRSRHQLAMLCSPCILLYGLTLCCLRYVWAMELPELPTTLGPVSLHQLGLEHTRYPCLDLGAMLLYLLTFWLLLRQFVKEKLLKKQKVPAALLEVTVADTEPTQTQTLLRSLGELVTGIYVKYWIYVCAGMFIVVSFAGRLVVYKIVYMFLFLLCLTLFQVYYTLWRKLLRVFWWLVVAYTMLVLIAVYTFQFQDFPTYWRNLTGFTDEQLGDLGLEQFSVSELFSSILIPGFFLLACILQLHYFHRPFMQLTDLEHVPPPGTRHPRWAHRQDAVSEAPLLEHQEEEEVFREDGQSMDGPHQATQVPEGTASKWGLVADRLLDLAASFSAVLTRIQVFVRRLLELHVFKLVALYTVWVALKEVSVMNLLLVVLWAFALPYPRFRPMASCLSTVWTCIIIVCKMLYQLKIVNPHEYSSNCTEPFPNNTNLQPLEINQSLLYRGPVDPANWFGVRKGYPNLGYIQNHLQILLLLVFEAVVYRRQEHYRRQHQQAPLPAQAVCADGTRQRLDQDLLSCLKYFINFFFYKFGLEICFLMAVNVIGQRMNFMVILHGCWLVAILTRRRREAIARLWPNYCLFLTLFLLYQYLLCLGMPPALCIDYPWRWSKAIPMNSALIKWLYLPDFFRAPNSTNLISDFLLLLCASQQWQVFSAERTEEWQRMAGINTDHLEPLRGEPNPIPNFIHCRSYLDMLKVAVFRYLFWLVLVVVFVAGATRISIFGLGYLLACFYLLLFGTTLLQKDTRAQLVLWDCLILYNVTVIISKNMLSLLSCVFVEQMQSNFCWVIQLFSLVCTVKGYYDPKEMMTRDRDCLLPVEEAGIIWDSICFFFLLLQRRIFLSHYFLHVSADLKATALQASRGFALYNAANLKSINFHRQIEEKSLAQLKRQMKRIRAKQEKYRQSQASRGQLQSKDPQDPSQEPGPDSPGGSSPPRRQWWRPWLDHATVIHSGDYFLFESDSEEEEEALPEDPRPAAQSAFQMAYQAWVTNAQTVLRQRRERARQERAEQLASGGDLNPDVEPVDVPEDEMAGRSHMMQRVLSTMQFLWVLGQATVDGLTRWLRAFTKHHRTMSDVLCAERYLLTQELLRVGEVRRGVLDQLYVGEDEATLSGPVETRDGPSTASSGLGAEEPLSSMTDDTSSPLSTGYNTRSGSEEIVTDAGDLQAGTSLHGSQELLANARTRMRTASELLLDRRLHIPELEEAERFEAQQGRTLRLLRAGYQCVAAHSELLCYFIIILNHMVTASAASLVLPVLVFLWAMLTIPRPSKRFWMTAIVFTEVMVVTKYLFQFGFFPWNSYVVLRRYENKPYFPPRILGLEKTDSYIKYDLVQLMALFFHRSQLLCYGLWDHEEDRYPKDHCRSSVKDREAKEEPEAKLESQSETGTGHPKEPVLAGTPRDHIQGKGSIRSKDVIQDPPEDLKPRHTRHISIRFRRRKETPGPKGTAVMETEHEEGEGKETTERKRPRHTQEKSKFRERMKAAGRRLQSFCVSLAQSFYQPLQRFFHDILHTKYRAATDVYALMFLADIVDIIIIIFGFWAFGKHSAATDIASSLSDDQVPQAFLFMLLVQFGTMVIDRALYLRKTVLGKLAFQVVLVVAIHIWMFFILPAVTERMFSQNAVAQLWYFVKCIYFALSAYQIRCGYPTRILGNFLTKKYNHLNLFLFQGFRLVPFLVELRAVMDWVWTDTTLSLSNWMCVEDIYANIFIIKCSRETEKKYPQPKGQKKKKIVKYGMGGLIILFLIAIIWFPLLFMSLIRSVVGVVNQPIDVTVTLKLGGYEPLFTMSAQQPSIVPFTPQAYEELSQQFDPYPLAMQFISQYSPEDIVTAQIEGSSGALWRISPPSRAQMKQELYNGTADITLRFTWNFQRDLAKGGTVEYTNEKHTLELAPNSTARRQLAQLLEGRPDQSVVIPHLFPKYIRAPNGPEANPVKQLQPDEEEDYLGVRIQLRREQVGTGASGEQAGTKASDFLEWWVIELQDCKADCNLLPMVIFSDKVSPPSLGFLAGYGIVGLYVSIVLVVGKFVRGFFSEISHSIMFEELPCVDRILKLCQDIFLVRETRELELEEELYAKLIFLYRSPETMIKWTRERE

T1 sequence (Q9EPK8 whole entry): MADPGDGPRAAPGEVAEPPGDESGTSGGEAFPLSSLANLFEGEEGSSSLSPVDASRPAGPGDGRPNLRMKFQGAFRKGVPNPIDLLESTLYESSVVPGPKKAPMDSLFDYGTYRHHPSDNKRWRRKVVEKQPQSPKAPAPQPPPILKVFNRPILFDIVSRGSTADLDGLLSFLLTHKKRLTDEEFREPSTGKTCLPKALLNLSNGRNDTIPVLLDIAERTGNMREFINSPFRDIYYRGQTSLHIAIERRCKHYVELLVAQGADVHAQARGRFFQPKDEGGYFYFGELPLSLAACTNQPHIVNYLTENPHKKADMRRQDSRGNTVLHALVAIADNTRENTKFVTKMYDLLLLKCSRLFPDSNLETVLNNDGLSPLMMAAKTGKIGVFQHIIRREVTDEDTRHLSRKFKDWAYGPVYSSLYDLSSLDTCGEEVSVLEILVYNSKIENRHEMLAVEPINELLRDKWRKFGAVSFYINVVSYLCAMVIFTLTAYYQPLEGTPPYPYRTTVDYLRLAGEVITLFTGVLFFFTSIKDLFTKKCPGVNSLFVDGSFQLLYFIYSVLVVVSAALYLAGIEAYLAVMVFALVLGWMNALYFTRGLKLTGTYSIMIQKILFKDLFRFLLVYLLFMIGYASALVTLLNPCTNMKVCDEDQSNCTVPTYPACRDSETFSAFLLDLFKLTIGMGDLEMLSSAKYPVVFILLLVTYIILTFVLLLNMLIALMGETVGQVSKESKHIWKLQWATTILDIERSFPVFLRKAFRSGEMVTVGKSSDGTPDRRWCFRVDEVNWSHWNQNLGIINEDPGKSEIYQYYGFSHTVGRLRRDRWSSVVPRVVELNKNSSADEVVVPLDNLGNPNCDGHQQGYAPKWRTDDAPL

SMILES	EC50 (TRPV4 (MC3T3-E1 cells))	EC50 [1]
CC(C)C[C@H](NC(=O)c1cc2ccccc2s1)C(=O)N1CCN(C(=O)[C@H](CO)NS(=O)(=O)c2ccc(Cl)cc2Cl)CC1 [GSK1016790A]	2.25 ± 0.45 nM	
Clc1cccc(Cl)c1CSc1nnc(-c2cnccn2)s1 [Yoda1, 2-[5-[[(2,6-Dichlorophenyl)methyl]thio]-1,3,4-thiadiazol-2-yl]-pyrazine]		380 ± 70 nM
